Counter-ions that a name gives are not always drawn.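 Test compounds were applied to cells in 96-well plates for 48 hours at 5 doses. Here, GI50 denotes the concentration required for 50% inhibition of growth.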 Active and inactive are the calls of the source. Rule as the data show it: active = GI50 up to about 1.1 µM and inactive = higher.
Tests used:
Assay in all cases: NCI anticancer screen, dose series, 48 h
[1] = tested on: SNB-19
[2] = tested on: HT-29
[3] = tested on: HOP-92
[4] = tested on: TK-10
[5] = tested on: SN12C
[6] = tested on: RPMI-8226
[7] = tested on: UACC-257
[8] = tested on: NCI/ADR-RES
[9] = tested on: MDA-MB-231
[10] = tested on: UO-31
[11] = tested on: A549
[12] = tested on: MDA-N
[13] = tested on: OVCAR-4
[14] = tested on: UACC-62
[15] = tested on: SF-295
[16] = tested on: A498
[17] = tested on: NCI-H23
[18] = tested on: HL-60
[19] = tested on: Malme-3M

Measured: GI50

CCSc1nc(C)nc2c1sc1nc3ccccc3n12
inactive: [1] > 100 µM | [2] > 100 µM | [3] > 100 µM | [4] > 100 µM | [5] > 100 µM | [6] > 100 µM | [7] > 100 µM | [8] > 100 µM | [9] > 100 µM | [10] > 100 µM | [11] > 100 µM | [12] > 100 µM | [13] > 78.3 µM | [14] > 100 µM | [15] > 100 µM | [16] > 100 µM | [17] > 100 µM | [18] > 28.1 µM

O=C(O)CO[C@@]12C#C/C=C\C#C[C@@H]3N(C(=O)Oc4ccccc4)c4ccccc4[C@]14O[C@@]34CCC2
inactive: [1] 37 µM | [2] 45.4 µM | [3] 57.4 µM | [4] > 100 µM | [5] 30.5 µM | [6] 31.6 µM | [7] 55.7 µM | [8] 31.6 µM | [9] 12.9 µM | [10] 24.1 µM | [11] > 100 µM | [12] 14.9 µM | [13] 56.1 µM | [14] 11.5 µM | [15] > 10 µM | [16] 59.3 µM | [17] 53.5 µM | [18] 26.5 µM

CCOP(=O)(OCC)/C(C#N)=C/c1cccn1C
inactive: [1] > 100 µM | [2] > 100 µM | [3] > 100 µM | [4] > 100 µM | [5] > 100 µM | [6] > 100 µM | [7] > 100 µM | [8] > 100 µM | [9] > 100 µM | [10] 41.6 µM | [11] > 100 µM | [19] > 100 µM | [12] > 100 µM | [13] > 100 µM | [14] > 100 µM | [15] > 100 µM | [16] > 100 µM | [17] > 100 µM

C/C(=N\c1cc(Cl)cc(Cl)c1)c1ccncc1
inactive: [1] > 100 µM | [2] > 100 µM | [3] 63.8 µM | [4] > 100 µM | [5] > 100 µM | [6] 31 µM | [7] > 100 µM | [8] > 100 µM | [9] > 100 µM | [10] 89.7 µM | [11] > 100 µM | [19] > 100 µM | [12] > 100 µM | [13] > 100 µM | [14] 15 µM | [15] > 100 µM | [16] > 100 µM | [17] > 100 µM

Cc1[nH]n(-c2nc(-c3ccccc3)cc(=O)[nH]2)c(=O)c1CCO
inactive: [1] > 100 µM | [2] > 100 µM | [3] > 100 µM | [4] > 100 µM | [5] > 100 µM | [6] > 100 µM | [7] > 100 µM | [8] 71.1 µM | [9] > 100 µM | [10] > 100 µM | [11] > 100 µM | [19] > 100 µM | [12] > 100 µM | [13] > 100 µM | [14] > 100 µM | [15] > 100 µM | [17] > 100 µM | [18] > 100 µM

N#CCCSC1SC(=C2SC3=C(SCCS3)S2)SC1SCCC#N (stereo not given)
inactive: [1] > 100 µM | [2] > 100 µM | [3] > 100 µM | [4] > 100 µM | [5] > 100 µM | [7] > 100 µM | [8] > 100 µM | [9] > 100 µM | [10] > 100 µM | [11] > 100 µM | [12] > 100 µM | [13] > 100 µM | [14] > 100 µM | [15] > 100 µM | [16] > 100 µM | [17] > 100 µM | [18] > 100 µM

O=[N+]([O-])c1cccc(-c2cn3c(n2)Cc2ccccc2C3)c1
inactive: [1] > 100 µM | [2] 12.3 µM | [3] > 100 µM | [4] > 100 µM | [5] > 100 µM | [7] 87.3 µM | [8] > 100 µM | [9] 18.8 µM | [10] 51.2 µM | [11] 64.1 µM | [19] > 100 µM | [12] 50.8 µM | [13] > 100 µM | [14] 53 µM | [15] 78.5 µM | [16] 16.9 µM | [17] 59.6 µM | [18] > 100 µM

CN(C)CCOC(=O)COc1ccc(Cl)cc1 [CENTROPHENOXINE HYDROCHLORIDE]
inactive: [1] > 100 µM | [2] > 100 µM | [3] > 100 µM | [5] > 100 µM | [7] > 100 µM | [8] > 100 µM | [9] > 100 µM | [10] > 100 µM | [11] > 100 µM | [19] > 100 µM | [12] > 100 µM | [13] > 100 µM | [14] > 100 µM | [15] > 100 µM | [16] 98.6 µM | [17] > 100 µM

CCN(CC)C(=O)c1cc([N+](=O)[O-])c(=O)n2c1[nH]c1ccccc12
inactive: [1] > 100 µM | [2] > 100 µM | [3] > 100 µM | [4] > 100 µM | [5] > 100 µM | [6] > 100 µM | [7] > 100 µM | [8] > 100 µM | [9] > 100 µM | [10] > 100 µM | [11] > 100 µM | [19] > 100 µM | [12] > 100 µM | [13] > 100 µM | [14] > 100 µM | [15] > 100 µM | [17] > 100 µM | [18] > 100 µM

N=c1c2c3n(c4c(=O)n(-c5ccccc5)c(=S)n(c(=O)n1-c1ccccc1)c24)CCCCC3
inactive: [1] > 100 µM | [2] > 100 µM | [3] > 100 µM | [4] > 100 µM | [5] > 100 µM | [7] > 100 µM | [8] > 100 µM | [9] > 100 µM | [10] > 100 µM | [11] > 100 µM | [19] > 100 µM | [12] > 100 µM | [13] > 100 µM | [14] > 100 µM | [15] > 100 µM | [16] > 96.2 µM | [17] > 100 µM | [18] > 100 µM

CCOC(=O)/C(=C\c1cn(C(C)=O)c2ccccc12)P(C)(=O)OCC (stereo not given)
inactive: [1] 49.9 µM | [2] 39.9 µM | [3] 17.2 µM | [5] 26.8 µM | [6] > 100 µM | [8] 20.4 µM | [9] 27.4 µM | [10] 32.3 µM | [11] 37.1 µM | [19] 17.3 µM | [12] 24.8 µM | [14] 60 µM | [15] 41.8 µM | [16] 28.8 µM | [18] > 100 µM

O=C1NN=C(c2c[nH]c3ccccc23)CC1NCc1ccccc1 (stereo not given)
inactive: [1] > 100 µM | [2] > 100 µM | [3] > 100 µM | [4] > 100 µM | [5] > 100 µM | [6] > 100 µM | [7] > 100 µM | [8] > 100 µM | [9] > 100 µM | [10] > 100 µM | [11] > 100 µM | [19] > 100 µM | [12] > 100 µM | [14] > 100 µM | [15] > 100 µM | [16] > 100 µM | [17] > 100 µM | [18] > 100 µM

Cc1ccc(/N=N/c2c(O)c(C(=O)O)cc3ccccc23)c(S(=O)(=O)O)c1
inactive: [1] > 100 µM | [2] > 100 µM | [3] 97.1 µM | [4] > 100 µM | [5] > 100 µM | [6] > 100 µM | [7] > 100 µM | [8] > 100 µM | [9] > 100 µM | [10] > 100 µM | [11] > 100 µM | [19] > 100 µM | [12] > 100 µM | [13] > 100 µM | [14] > 100 µM | [15] > 100 µM | [16] > 100 µM | [17] > 100 µM

CCOC(=O)[C@@H]1ON2O[C@@H](OC3CCCCC3c3ccccc3)C[C@H]3OC(=O)[C@@H]1C32 (stereo not given in full)
inactive: [2] > 100 µM | [3] > 100 µM | [4] > 100 µM | [5] > 100 µM | [6] > 100 µM | [7] > 100 µM | [8] > 100 µM | [9] 84.7 µM | [10] > 100 µM | [11] 80.7 µM | [12] > 100 µM | [14] > 100 µM | [15] > 100 µM | [16] > 100 µM | [17] 53.6 µM

COc1cccc2nc3ccccc3nc12
inactive: [1] 94.6 µM | [2] 46.3 µM | [3] 33 µM | [4] 66.1 µM | [5] 71.4 µM | [6] 17 µM | [7] 91.2 µM | [8] > 100 µM | [9] 67.6 µM | [10] 36 µM | [11] 54.2 µM | [19] > 100 µM | [12] > 100 µM | [14] 50.9 µM | [15] 80 µM | [16] 76.9 µM | [17] > 100 µM | [18] > 100 µM

Cc1cc(OCc2nn(CN3CCN(C)CC3)c(=S)n2/N=C/c2ccc(-c3ccc(Cl)cc3Cl)o2)ccc1Cl
inactive: [2] 28.2 µM | [3] 21 µM | [4] 75.2 µM | [6] 17.1 µM | [7] 53.5 µM | [8] 38 µM | [9] 97.5 µM | [10] 57.1 µM | [12] 39.3 µM | [13] 27 µM | [15] 84.1 µM | [16] 36.3 µM | [17] 39.6 µM | [18] 22.3 µM

Reference: ChEMBL document CHEMBL1201862, “PubChem BioAssay data set” (2004)
